Data published in patent publication US10130095B2, “Fungicidal compositions of pyrazolecarboxylic acid alkoxyamides” (BASF AGRO B.V., priority 2014, dated 2018).

Legend:
[1] = tested on: Botrytis cinerea; test: in vivo preventive test on Botrytis test (beans); conditions: evaluated 2 days after inoculation
Description: Solvent: 24.5 parts by weight of acetone • 24.5 parts by weight of dimethylacetamide Emulsifier: 1 part by weight of alkylaryl polyglycol ether To produce a suitable preparation of active compound, 1 part by weight of active compound is mixed with the stated amounts of solvent and emulsifier, and the concentrate is diluted with water to the desired concentration. To test for preventive activity, young plants are sprayed with the preparation of active compound. After the spray coating has dried on, 2 small pieces of agar covered with growth of Botrytis cinerea are placed on each leaf. The inoculated plants are placed in a darkened chamber at 20° C. and a relative at mospheric humidity of 100%. 2 days after the inoculation, the size of the lesions on the leaves is evaluated. 0% means an efficacy which corresponds to that of the untreated control, while an efficacy of 100% means that no disease is observed.

[2] = tested on: Septoria tritici; test: in vivo preventive Septoria tritici test (wheat); conditions: 15 ppm a.i., evaluated 21 days after inoculation
Description: Solvent: 49 parts by weight of N,N-dimethylacetamide Emulsifier: 1 part by weight of alkylaryl polyglycol ether To produce a suitable preparation of active compound, 1 part by weight of active compound or active compound combination is mixed with the stated amounts of solvent and emulsifier, and the concentrate is diluted with water to the desired concentration. To test for preventive activity, young plants are sprayed with the preparation of active compound or active compound combination at the stated rate of application. After the spray coating has been dried, the plants are sprayed with a spore suspension of Septoria tritici. The plants remain for 48 hours in an incubation cabinet at approximately 20° C. and a relative atmospheric humidity of approximately 100% and afterwards for 60 hours at approximately 15° C. in a translucent incubation cabinet at a relative atmospheric humidity of approximately 100%. The plants are placed in the greenhouse at a temperature of approximately 15° C. and a relative atmospheric humidity of approximately 80%. The test is evaluated 21 days after the inoculation. 0% means an efficacy which corresponds to that of the untreated control, while an efficacy of 100% means that no disease is observed.

[3] = tested on: Alternaria solani; test: in vivo preventive test on Alternaria test (tomatoes); conditions: evaluated 3 days after inoculation
Description: (§1) Solvent: 24.5 parts by weight of acetone • 24.5 parts by weight of dimethylacetamide Emulsifier: 1 part by weight of alkylaryl polyglycol ether To produce a suitable preparation of active compound, 1 part by weight of active compound is mixed with the stated amounts of solvent and emulsifier, and the concentrate is diluted with water to the desired concentration. To test for preventive activity, young plants are sprayed with the preparation of active compound at the stated rate of application. After the spray coating has dried on, the plants are inoculated with an aqueous spore suspension of Alternaria solani. The plants are then placed in an incubation cabinet at approximately 20° C. and a relative atmospheric humidity of 100%. The test is evaluated 3 days after the inoculation. 0% means an efficacy which corresponds to that of the untreated control while an efficacy of 100% means that no disease is observed.

[4] = tested on: Venturia inaequalis; test: in vivo preventive test on Venturia test (apples); conditions: evaluated 10 days after inoculation
Description: as §1, with “conidia” for “spore”, “the causal agent of apple scab (Venturia inaequalis) and” for “Alternaria solani. The plants are”, “remain for 1 day” for “placed”, “The plants are then placed in a greenhouse at approximately 21° C. and a relative atmospheric humidity of approximately 90%. The” for “The”, “10” for “3”, “control,” for “control”

Row | SMILES | Efficacy in % found ([1]; 5 ppm a.i.) [%] | Efficacy in % found [2] [%] | Efficacy in % found ([3]; 1.25 ppm a.i.) [%] | Efficacy in % found ([3]; 2.5 ppm a.i.) [%] | Efficacy in % found ([4]; 1.25 ppm a.i.) [%] | Efficacy in % found ([1]; 0.5 ppm a.i.) [%] | Efficacy in % found ([4]; 0.125 ppm a.i.) [%]
1 | CC(O)(Cn1cncn1)c1ccc(Oc2ccc(Cl)cc2)cc1C(F)(F)F (centres unmarked) [(B1-1), 2-[4-(4-Chlorophenoxy)-2-(trifluoromethyl)phenyl]-1-(1H-1,2,4-triazol-1-yl)propan-2-ol] | 20 | 0 | – | – | – | – | –
2 | CCC(O)(Cn1cncn1)c1ccc(Oc2ccc(Cl)cc2)cc1C(F)(F)F (centres unmarked) [(B1-2), 2-[4-(4-chlorophenoxy)-2-(trifluoromethyl)phenyl]-1-(1H-1,2,4-triazol-1-yl)butan-2-ol] | – | 13 | 8 | 30 | 30 | – | –
3 | CON(C(=O)c1cn(C)nc1C(F)F)C(C)Cc1c(Cl)cc(Cl)cc1Cl (centres unmarked) [(I-1), 3-(difluoromethyl)-N-methoxy-1-methyl-N-[1-(2,4,6-trichlorophenyl)propan-2-yl]-1H-pyrazole-4-carboxamide] | – | – | – | – | – | 8 | 76
